Laboratory results as given in patent publication US7544814B2, “[3.2.0] Heterocyclic compounds and methods of using the same” (Nereus Pharmaceuticals, Inc., priority 2004, dated 2009).
Values joined by “and” are separate entries in the source; they are usually repeats but may differ in a detail not shown here. Equal entries are not always repeated. Where two headings read alike, the source gives them in different places.

Columns and labels:
[1] = target: T1, trypsin-like activity of purified rabbit muscle 20S proteasome (Oryctolagus cuniculus, UniProt G1SWK8); experiment: biochemical
T1 sequence (G1SWK8 1-271): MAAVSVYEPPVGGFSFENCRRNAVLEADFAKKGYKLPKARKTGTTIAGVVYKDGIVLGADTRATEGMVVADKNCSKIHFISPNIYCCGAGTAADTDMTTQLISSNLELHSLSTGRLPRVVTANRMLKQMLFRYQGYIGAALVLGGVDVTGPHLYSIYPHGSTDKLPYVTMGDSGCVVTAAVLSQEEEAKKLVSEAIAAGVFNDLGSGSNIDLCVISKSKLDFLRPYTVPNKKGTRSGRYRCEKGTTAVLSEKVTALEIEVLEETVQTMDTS

[2] = target: T2, chymotrypsin-like activity of purified rabbit muscle 20S proteasome (Oryctolagus cuniculus, UniProt G1T4Q9); experiment: In vitro inhibition of 20S proteasome chymotrypsin-like activity (suc-LLVY-AMC)
T2 sequence (G1T4Q9 1-263): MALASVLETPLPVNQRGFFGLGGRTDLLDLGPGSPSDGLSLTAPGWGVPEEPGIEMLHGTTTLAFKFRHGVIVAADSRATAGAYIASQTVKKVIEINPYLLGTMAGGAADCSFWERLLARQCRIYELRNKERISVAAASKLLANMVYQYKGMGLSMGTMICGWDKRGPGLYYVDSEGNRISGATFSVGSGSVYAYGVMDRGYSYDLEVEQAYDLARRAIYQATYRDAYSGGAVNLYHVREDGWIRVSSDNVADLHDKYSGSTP

NF-κB = experiment: NF-κB-mediated luciferase reporter gene assay, HEK293 NF-κB/Luc cells, TNF-α stimulation; assay type: cell-based, human; conditions: for EC50: Homo sapiens; for effect on luciferase activity upon TNF-α stimulation, in words: pretreatment of NF-κB/Luc 293 cells
How it was run: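 Cells seeded at 1.5×10^4/well in phenol-red free DMEM, pretreated 1 h with 8-point half-log compound dilutions (DMSO stocks), then stimulated with TNF-α (10 μl of 50 ng/ml solution) for 6 h. Luciferase read as RLU after 10 min with Steady Lite reagent at room temperature.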

RPMI 8226 = experiment: Cell growth inhibition (resazurin), RPMI 8226; conditions: for EC50: Homo sapiens; for cytotoxicity against RPMI 8226, in words: from EC50 values
[3] = target: T3, caspase-like activity of purified rabbit muscle 20S proteasome (Oryctolagus cuniculus, UniProt A0A5F9DQW2); experiment: In vitro inhibition of 20S proteasome caspase-like activity (Z-LLE-AMC)
T3 sequence (A0A5F9DQW2 1-212): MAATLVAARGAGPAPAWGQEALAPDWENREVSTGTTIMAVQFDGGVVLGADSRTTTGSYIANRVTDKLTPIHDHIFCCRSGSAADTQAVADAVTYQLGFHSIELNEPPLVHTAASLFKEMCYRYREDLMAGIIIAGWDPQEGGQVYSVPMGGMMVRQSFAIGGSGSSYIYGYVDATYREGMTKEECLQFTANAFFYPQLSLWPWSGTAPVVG

[4] = target: T1, trypsin-like activity of purified rabbit muscle 20S proteasome; experiment: In vitro inhibition of 20S proteasome trypsin-like activity (Boc-LRR-AMC); conditions: under the conditions tested
U266 = experiment: Cell growth inhibition (resazurin), U266; conditions: for EC50: 48 hours drug exposure; for cytotoxicity against U266, in words: from EC50 values
B16-F10 = experiment: Cell growth inhibition (resazurin), B16-F10; conditions: from EC50 values
MES-SA = experiment: Cell growth inhibition (resazurin), MES-SA; assay type: cell-based, human; conditions: from EC50 values
NCI-H292 = experiment: Cell growth inhibition (resazurin), NCI-H292; conditions: from EC50 values
HL-60 = experiment: Cell growth inhibition (resazurin), HL-60; assay type: cell-based, human; conditions: from EC50 values
[5] = EC50 Chymotrypsin-like, Table 6, values in nM
[6] = Proteasome Chymotrypsin-like EC50, Table 12
[7] = HEK293, read-out: NF-κB EC50, Table 12
[8] = RPMI-8226, read-out: Cytotoxicity RPMI EC50, Table 12
[9] = Proteasome Caspase-like EC50, Table 12

SMILES	EC50 [2, 5]	EC50 [2, 6]	EC50 (NF-κB; [7])	effect on luciferase activity upon TNF-α stimulation, in words (NF-κB)	EC50 (RPMI 8226; [8])	cytotoxicity against RPMI 8226, in words (RPMI 8226)	EC50 [3, 9]	inhibition of the trypsin-like activity of the 20S proteasome, in words [4]	cytotoxicity against U266, in words (U266)	also measured
C[C@H]1C(=O)N[C@@]2(C(O)[C@@H]3C=CCCC3)C(=O)O[C@@]12C (single isomer, unassigned) [Formula II-20]	7.7 ± 3 nM	7.7 ± 3 nM	849 ± 225 nM	dose-dependent decrease	8510 ± 3260 nM	cytotoxic	1.42 µM	able to inhibit	cytotoxic	EC50 [1]: 318 nM and 321 nM; EC50 (RPMI 8226; RPMI-8226, 48 h, read-out: RPMI 8226 EC50, Table 2, 48 hours drug exposure, mean ± SD where n≥3): 8510 ± 3260 nM; EC50 ([3]; EC50 Caspase-like, Table 6, values in μM): 1.4 µM; EC50 ([3]; EC50 values, caspase-like activity, range in mixed units, summary of Table 6, range from nM to μM): 0.956 to 8.7 µM; EC50 (U266; Homo sapiens, U-266, 48 h, read-out: U266 EC50, Table 2): 310 nM; EC50 (U266; read-out: U266 EC50, Table 2): 442 nM
C[C@@]12OC(=O)[C@]1([C@@H](O)[C@@H]1C=CCCC1)NC(=O)[C@@H]2CCBr [Formula II-18]	2.3 nM	2.3 nM and 2 nM	11 nM	dose-dependent decrease	6.3 nM	cytotoxic	0.286 µM and 0.213 µM	able to inhibit	cytotoxic	cytotoxicity against B16-F10, in words (B16-F10): cytotoxic; EC50 ([2]; EC50 values, chymotrypsin-like activity, summary of Table 6): 2 to 11 nM; EC50 (NF-κB; HEK293, read-out: EC50, NF-κB-mediated luciferase reporter gene assay, Table 5, values in nM, 1 hr pretreatment, TNF-α 6 hr): 9 nM; EC50 ([3]; EC50 Caspase-like, Table 6, values in nM): 0.286 µM and 0.213 µM; EC50 ([3]; EC50 values, caspase-like activity, summary of Table 6): 0.213 to 0.85 µM; cytotoxic activity against MES-SA, in words (MES-SA): cytotoxic activity; cytotoxicity against NCI-H292, in words (NCI-H292): cytotoxic; cytotoxic activity against HL-60, in words (HL-60): retained cytotoxic activity
